Reference: patent US20170198005A1, “2'-DICHLORO AND 2'-FLUORO-2'-CHLORO NUCLEOSIDE ANALOGUES FOR HCV INFECTION” (IDENIX PHARMACEUTICALS LLC, priority 2013, published 2017)
Like-named read-outs stand apart in the source and are kept apart here.

Key:
HCV genotype 1b replicon = assay: HCV replicon assay (luciferase reporter); assay type: cell-based; conditions: Zluc cells, 72 hours of incubation
Method: Huh-7-derived cell line (Zluc) that harbors an HCV genotype 1b replicon and a luciferase reporter gene was grown in Dulbecco's Modified Eagle Medium (DMEM) supplemented with 10% fetal bovine serum, 2 mM GlutaMAX, 1% MEM nonessential amino acids, 100 IU/mL penicillin, 100 μg/mL streptomycin, and 0.5 mg/mL Geneticin® (G418). For dose response testing the cells were seeded in 96-well plates at 7.5×10^3 cells per well in a volume of 50 μL, and incubated at 37° C./5% CO2. Drug solutions were made up freshly in Huh-7 media as 2× stocks. Ten additional 5-fold dilutions were prepared from these stocks in DMEM without G418. At least three hours after Zluc cells were seeded, drug treatment was initiated by adding 50 μL of drug dilutions to the plates in duplicate. Final concentrations of drug ranged from 100 μM to 0.0000512 μM. Cells were then incubated at 37° C./5% CO2. […] After 72 hours of incubation, the inhibition of HCV replication was measured by quantification of photons emitted after mono-oxygenation of 5′-fluoroluciferin to oxyfluoroluciferin by firefly luciferase. For this, media was removed from the plates via gentle tapping. Fifty microliters of ONE-glo luciferase assay reagent was added to each well. The plates were shaken gently for 3 min at room temperature and luminescence was measured on a Victor^3 V 1420 multilabel counter (Perkin Elmer) with a 1 second read time using a 700 nm cut-off filter. The EC50 values were calculated from dose response curves from the resulting best-fit equations determined by Microsoft Excel and XLfit 5.2 software.
Compounds presented in Table 1 below were assayed according to the replicon assay described herein.

[1] = Cytotoxicity evaluation, CellTiter-Blue Cell Viability Assay; assay type: cell-based; conditions: human
Method: (§1) For cytotoxicity evaluation, Zluc cells were treated with compound as described herein, and cell viability was monitored using the CellTiter-Blue Cell Viability Assay (Promega) by adding 20 μL of the assay solution to each well. The plates were then incubated at 37° C./5% CO2 for at least 3 hours. Fluorescence was detected in plates using excitation and emission wavelengths of 531 and 595 nm, respectively, in a Victor^3 V 1420 multilabel counter (Perkin Elmer) and CC50 values were determined using Microsoft Excel and XLfit 5.2 software.

[2] = tested on: Zluc cells (Huh-7-derived cell line); assay: as above; assay type: cell-based; conditions: read-out: HCV Replicon CC50
Method: as §1

[3] = target: T1, HCV genotype 1b NS5B protein containing the S282T mutation (Hepatitis C virus genotype 1b, UniProt Q9WMX2, S2701T); assay: HCV polymerase enzyme assay, S282T mutant; assay type: biochemical
T1 construct: HCV genotype 1b NS5B protein were used to generate recombinant HCV polymerases (with a deletion of the 21 carboxy terminal amino acids); made in house
Source text: (§2) Test compounds in the form of nucleoside triphosphates were examined for inhibitory activity against purified HCV polymerase in a standard assay. Bacterial expression constructs encoding the approximately 65 kDa HCV genotype 1b NS5B protein were used to generate recombinant HCV polymerases (with a deletion of the 21 carboxy terminal amino acids). Both the wild-type genotype 1b protein and protein containing the S282T mutation were expressed and purified for use in the enzymatic activity assay.
(§3) The enzymatic activity assay measured the inhibitory effect of increasing concentrations of test compound on the incorporation of α-[^33P]-labeled nucleotide into trichloroacetic acid-precipitable material. Recombinant polymerase and synthetic RNA template were combined in reaction buffer containing ribonucleoside triphosphates, α-[^33P]-labeled nucleotide and eight concentrations of test compound in three-fold dilutions. Reactions were incubated for two hours at 30° C.
(§4) Reactions were terminated by the addition of ice-cold trichloroacetic acid and sodium pyrophosphate to promote precipitation of newly-synthesized ribonucleic acid. Precipitable material from the reactions was collected by filtration onto 96-well filter plates, washed extensively with water, and quantified by liquid scintillation.
(§5) The inhibitory activity of test compounds was determined by fitting results to dose-response curves using XLfit software.

[4] = target: T2, wild-type HCV genotype 1b NS5B protein (HCV polymerase) (Hepatitis C virus genotype 1b, UniProt Q9WMX2); assay: HCV polymerase enzyme assay, wild-type; assay type: biochemical
T2 construct: HCV genotype 1b NS5B protein were used to generate recombinant HCV polymerases (with a deletion of the 21 carboxy terminal amino acids); made in house
Source text: as §2, §3, §4, §5

[5] = Pharmacokinetics of liver triphosphate following a single oral dose in CD-1 mice; assay type: in vivo; conditions: CD-1 male mice, single oral dose 10 mg/kg in PEG 200, liver triphosphate at 4, 12 and 24 hours, AUC given at 1 μmol/kg
Method: A single oral dose of test compound at 10 mg/kg in PEG 200 (dose volume 5 mL/kg) was administered to nine CD-1 male mice. Five untreated animals were used for the collection of control plasma and liver. Terminal plasma and liver samples were collected from three animals per time point at 4, 12 and 24 hours post dose. Liver specimens were collected from all animals immediately after the incision. Freezing forceps stored in liquid nitrogen were used to freeze the liver before excision.
Liver samples were analyzed for the active species nucleoside triphosphate by LC-MS/MS. The triphosphate levels were assayed by homogenizing (on ice) a known weight of mouse liver with 4× volume of 0.95 M trichloroacetic acid (TCA). Internal standard solution was added to the homogenate followed by neutralization with 20% ammonium hydroxide solution and addition of 500 μL 1% formic acid. The tissue samples were extracted by weak anion exchange solid phase extraction (SPE). Post extraction, the eluates were evaporated under nitrogen, followed by reconstitution before injection onto the LC-MS/MS system. […] The analyte was detected and quantified by tandem mass spectrometry in positive ion mode on an API4000 equipped with a Turbo Ionspray® interface.

[6] = Zluc cells (Huh-7-derived HCV replicon cell line)
[7] = Zluc cells, read-out: HCV Replicon CC50

| SMILES | CC50 [1, 6] [µM] | EC50 (HCV genotype 1b replicon; Hepatitis C virus, 72 h) [µM] | other results |
| --- | --- | --- | --- |
| CC(C)OC(=O)[C@@H](C)NP(=O)(OC[C@H]1C[C@@H](n2ccc(N)nc2=O)C(Cl)(Cl)[C@@H]1O)Oc1ccccc1 (single isomer, unassigned) [103a (Diast. 2)] | – | – | EC50 (HCV genotype 1b replicon): > 10 µM |
| Nc1ccn([C@@H]2O[C@H](CO)[C@@H](O)[C@]2(F)Cl)c(=O)n1 [Compound 1004] | > 50 | 1 to 10 | – |
| CC(C)OC(=O)[C@H](C)N[P@](=O)(OCCSC(=O)C(C)(C)C)OC[C@H]1O[C@@H](n2ccc(N)nc2=O)[C@@](F)(Cl)[C@@H]1O (single isomer, unassigned) [102b (Diast. 1)] | > 50 | > 10 | – |
| CC(C)OC(=O)[C@@H](C)NP(=O)(OC[C@H]1C[C@@H](n2ccc(N)nc2=O)C(Cl)(Cl)[C@@H]1O)Oc1ccccc1 (single isomer, unassigned) [103a (Diast. 1)] | – | > 10 | CC50 [1, 7]: > 50 µM |
| CC(C)OC(=O)[C@H](C)N[P@](=O)(OCCSC(=O)C(C)(C)C)OC[C@H]1O[C@@H](n2ccc(N)nc2=O)C(Cl)(Cl)[C@@H]1O (single isomer, unassigned) [101b (Diast. 2)] | – | – | CC50 [2]: > 50 µM; EC50 (HCV genotype 1b replicon): 1 to 10 µM |
| CC(C)OC(=O)[C@H](C)N[P@](=O)(OCCSC(=O)C(C)(C)C)OC[C@H]1O[C@@H](n2ccc(N)nc2=O)[C@@](F)(Cl)[C@@H]1O (single isomer, unassigned) [102b (Diast. 2)] | – | – | CC50 [2]: > 50 µM; EC50 (HCV genotype 1b replicon): > 10 µM |
| CC(C)OC(=O)[C@H](C)N[P@](=O)(OCCSC(=O)C(C)(C)C)OC[C@H]1O[C@@H](n2ccc(N)nc2=O)[C@@](F)(Cl)[C@@H]1O (mixture of isomers) [102b (Diast. Mix)] | > 50 | > 10 | – |
| O=c1ccn([C@@H]2O[C@H](COP(=O)(O)OP(=O)(O)OP(=O)(O)O)[C@@H](O)C2(Cl)Cl)c(=O)[nH]1 [Compound 2002] | – | – | IC50 [3]: 1 to 10 µM; IC50 [4]: < 0.25 µM |
| O=c1ccn([C@@H]2O[C@H](CO)[C@@H](O)[C@]2(F)Cl)c(=O)[nH]1 [Compound 1006] | > 50 | > 10 | – |
| CC(C)OC(=O)[C@H](C)NP(=O)(OCCSC(=O)C(C)(C)C)OC[C@H]1O[C@@H](n2cnc3c(N)ncnc32)C(Cl)(Cl)[C@@H]1O (single isomer, unassigned) [117b (Diast. 2)] | – | – | CC50 [2]: ≤ 50 µM; EC50 (HCV genotype 1b replicon): 0.25 to 1 µM |
| Nc1ccn([C@@H]2O[C@H](CO)[C@@H](O)C2(Cl)Cl)c(=O)n1 [Compound 1001] | > 50 | > 10 | – |
| Nc1ncnc2c1ncn2[C@@H]1O[C@H](CO)[C@@H](O)C1(Cl)Cl [Compound 1011] | > 50 | > 10 | – |
| O=c1ccn([C@@H]2O[C@H](CO)[C@@H](O)C2(Cl)Cl)c(=O)[nH]1 [Compound 1002] | > 50 | > 10 | – |
| CC(C)OC(=O)[C@H](C)NP(=O)(OCCSC(=O)C(C)(C)C)OC[C@H]1O[C@@H](n2cnc3c(N)ncnc32)C(Cl)(Cl)[C@@H]1O (single isomer, unassigned) [117b (Diast. 1)] | ≤ 50 | 0.25 to 1 | – |
| CC(C)OC(=O)[C@H](C)N[P@](=O)(OCCSC(=O)C(C)(C)C)OC[C@H]1O[C@@H](n2ccc(N)nc2=O)C(Cl)(Cl)[C@@H]1O (single isomer, unassigned) [101b (Diast. 1)] | > 50 | 1 to 10 | – |
| Nc1ncnc2c1ncn2[C@@H]1O[C@H](COP(=O)(O)OP(=O)(O)OP(=O)(O)O)[C@@H](O)C1(Cl)Cl [Compound 2011] | – | – | IC50 [4]: 0.25 to 1 µM |
| O=c1ccn([C@@H]2O[C@H](COP(=O)(O)OP(=O)(O)OP(=O)(O)O)[C@@H](O)[C@]2(F)Cl)c(=O)[nH]1 [Compound 2004] | – | – | IC50 [3]: 1 to 10 µM; IC50 [4]: < 0.25 µM |
| O=c1ccn([C@@H]2O[C@H](COP(=O)(O)OP(=O)(O)OP(=O)(O)O)[C@@H](O)[C@@]2(F)Cl)c(=O)[nH]1 [Compound 2005] | – | – | IC50 [3]: 1 to 10 µM; IC50 [4]: < 0.25 µM |
| CC(C)OC(=O)[C@@H](C)NP(=O)(OC[C@H]1O[C@@H](n2cnc3c(=O)[nH]c(N)nc32)[C@@](F)(Cl)[C@@H]1O)Oc1ccccc1 (mixture of isomers) [147a (Diast. Mix)] | – | > 10 | CC50 [1, 7]: > 50 µM |
| CC(C)OC(=O)[C@@H](C)NP(=O)(OC[C@H]1C[C@@H](n2ccc(N)nc2=O)C(Cl)(Cl)[C@@H]1O)Oc1ccccc1 (mixture of isomers) [103a (Diast. Mix)] | – | 1 to 10 | CC50 [1, 7]: > 50 µM |
| CC(C)OP1(=O)OC[C@H]2O[C@@H](n3ccc(N)nc3=O)C(Cl)(Cl)[C@@H]2O1 (single isomer, unassigned) [104 (Diast. 1)] | > 50 | – | Ms Liver TP AUC ([5]; listed as 104 Diast. 1, 10 mg/kg): ++++ (2000 < ++++); EC50 (HCV genotype 1b replicon): 1 to 10 µM |
| O=c1ccn([C@@H]2O[C@H](CO)[C@@H](O)[C@@]2(F)Cl)c(=O)[nH]1 [Compound 1007] | > 50 | > 10 | – |
| Nc1nc2c(ncn2[C@@H]2O[C@H](CO)[C@@H](O)[C@]2(F)Cl)c(=O)[nH]1 [Compound 1005] | > 50 | > 10 | – |
| Nc1nc2c(ncn2[C@@H]2O[C@H](COP(=O)(O)OP(=O)(O)OP(=O)(O)O)[C@@H](O)[C@]2(F)Cl)c(=O)[nH]1 [Compound 2003] | – | – | IC50 [3]: < 0.25 µM; IC50 [4]: < 0.25 µM |
| CC(C)OP1(=O)OC[C@H]2O[C@@H](n3ccc(N)nc3=O)C(Cl)(Cl)[C@@H]2O1 (single isomer, unassigned) [104 (Diast. 2)] | – | – | Ms Liver TP AUC ([5]; listed as 104 Diast. 2, 10 mg/kg): +++ (+++ ≦ 2000); CC50 [2]: > 50 µM; EC50 (HCV genotype 1b replicon): > 10 µM |
| Nc1ccn([C@@H]2O[C@H](COP(=O)(O)OP(=O)(O)OP(=O)(O)O)[C@@H](O)C2(Cl)Cl)c(=O)n1 [Compound 2001] | – | – | IC50 [3]: 0.25 to 1 µM; IC50 [4]: < 0.25 µM |
